Where two headings read alike, the source gives them in different places. Square brackets hold non-standard residues; d marks the D form. Ends that are not written are not given here. Peptide text beside a SMILES is read from it. 4Pal = N[C@@H](Cc1ccncc1)C(=O)O; Aad = N[C@@H](CCCC(=O)O)C(=O)O; Sec = N[C@@H](C[SeH])C(=O)O; Orn = NCCC[C@H](N)C(=O)O

In assay [1] the target is T1, human JMJD7 (Homo sapiens, UniProt P0C870).
T1 construct: human JMJD7 (residues 1–316) with an N‐terminal His6‐tag; His6 (N); made in house; host or cells: Escherichia coli Rosetta (DE3)
T1 sequence (P0C870 whole entry, the tested form may be a part): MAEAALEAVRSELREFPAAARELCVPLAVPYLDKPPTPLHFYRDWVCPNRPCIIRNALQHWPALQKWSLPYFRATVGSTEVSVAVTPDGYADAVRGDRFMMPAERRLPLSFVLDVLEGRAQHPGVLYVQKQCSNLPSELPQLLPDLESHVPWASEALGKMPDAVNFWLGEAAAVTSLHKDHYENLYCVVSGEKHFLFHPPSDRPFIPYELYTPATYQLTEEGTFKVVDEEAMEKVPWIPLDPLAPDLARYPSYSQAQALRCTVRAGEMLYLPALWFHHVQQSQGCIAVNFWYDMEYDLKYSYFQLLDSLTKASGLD
Briefly: MALDI-TOF MS JMJD7 inhibition assay. It counts as biochemical.

Assay [2] deals with T1, human JMJD7. Briefly: MALDI-TOF MS JMJD7 inhibition assay. It counts as biochemical. As for the experimental part:
Due to signal overlaps between some DRG1 peptides and the reference DRG1‐Lys substrate, we synthesized a shorter reference substrate peptide (DRG1‐Lys, residues 17–40) for use in the MS‐based inhibition assays. Synthetic DRG1 peptides (residues 16–40, 10 or 50 μM) were preincubated with JMJD7 (200 nM) for 15 min, after which time the DRG1‐Lys substrate (residues 17–40, 5 μM), 2OG (10 μM), FAS […] and LAA […] were added, and the reaction were carried out for 25 min at room temperature. Most of the DRG1 peptides were not active as JMJD7 inhibitors at 10 μM (residual activity of JMJD7 >50%) (Figure S41a,b), with exceptions including the DRG1‐Orn, DRG1‐hGln and DRG1‐4pyrA peptides.
Single point screening assays were as follows; initially, JMJD7 (200 nM) and substituted DRG1 peptide (10 or 50 μM) were incubated for 15 min, followed by the addition of a mixture of the DRG1‐Lys substrate (5 μM), 2OG (10 μM), FAS (10 μM) and LAA (100 μM) in a final volume of 50 μL in Tris‐buffer (pH 7.5) and incubated for additional 25 min at room temperature. […] Reactions were quenched by the addition of 10% (v/v) formic acid and mixed 1:1 with CHCCA matrix (1:1 v/v MeCN:H2O) then analyzed by MALDI‐TIMS‐TOF MS. JMJD7 activity was determined by calculating the integral of hydroxylated peptide and normalized to a control reaction in absence of potential inhibitory peptides. Every experiment was performed in duplicate (n = 2), error bars are reported as SE.
The source holds these as a separate data set.

The target in assay [3] is T1, human JMJD7. Briefly: LC-MS assay of JMJD7-catalyzed hydroxylation/oxidation of DRG1 peptides. To be noted: 10 μM FAS, 100 μM LAA. The format is biochemical. As for the experimental part: Initial assays were carried out by incubation of purified recombinant (Markolovic et al., [2018]) human JMJD7 (2 μM) in the presence of a DRG1 derived peptide (10 μM), 2OG (10 μM), ferrous ammonium sulfate (FAS, 10 μM), and L‐ascorbate (LAA, 100 μM) in Tris buffer at pH 7.5 for 2 h at room temperature. Potential conversion to a hydroxylated product (+16 Da mass shift) was monitored by liquid‐chromatography‐mass‐spectrometry (LC–MS). […] The assay results also implied that DRG1‐Orn was hydroxylated, but to a lower extent (~21%) than DRG1‐Lys. […] The alcohol‐containing peptide hydroxynorleucine (DRG1‐HNle), was hydroxylated at relatively low levels (~24%), implying that H‐bonding interactions and positive charge of the N^ɛ‐amino group of lysine are important for efficient binding and catalysis, but that a neutral alcohol can still be accommodated at the active site (Figure 3f) (Markolovic et al., [2018]).
All reagents were procured from Sigma Aldrich. 2‐Oxoglutarate (2OG, 10 mM) and L‐ascorbic acid (LAA, 50 mM) solutions were prepared freshly by dissolving the solids in deionized water. Ferrous ammonium sulfate (FAS) solution was prepared freshly by dissolving FAS at 400 mM in 20 mM HCl with subsequent dilution to 1 mM using deionized water. JMJD7 assays using DRG1 (16–40) based peptides were performed with the following conditions: (i) 2 or 5 μM JMJD7, 10 μM DRG1 peptide, 100 μM LAA, 10 μM FAS, 10 μM 2OG in mM 50 Tris‐buffer (pH 7.5), (ii) 2 μM JMJD7, 10 μM DRG1 peptide, 100 μM LAA, 10 μM FAS, 20 μM 2OG in mM 50 Tris‐buffer (pH 7.5). Reactions were initiated by addition of enzyme to the cosubstrate/substrate solution in a final reaction volume of 50 μL with 2 h incubation at room temperature. A positive control reaction containing enzyme and a validated peptide substrate was included in all screening studies. After 2 h, reactions were stopped by addition of 5 μL of 10% (v/v) LC–MS grade formic acid (Fisher Scientific) and transferred to a 96 well plate (Agilent). Intact mass peptide analysis was performed by LC–MS using an Agilent 1290 infinity II LC system equipped with an Agilent 1290 multisampler and an Agilent 1290 high speed pump and connected to an Agilent 6550 accurate mass iFunnel quadrupole time of flight (Q‐TOF) mass spectrometer. The reaction mixture (4 μL) was injected and loaded onto a ZORBAX RRHD Eclipse Plus C18 column (Agilent). Solvent A consisted of LC–MS grade water containing 0.1% (v/v) formic acid and solvent B consisted of MeCN containing 0.1% (v/v) formic acid. Peptides were separated using a step wise gradient (0 min – 95% solvent A, 1.0 min – 80% solvent A, 3.0 min – 45% solvent A, 4.0 min – 45% solvent A, 5.0 min – 0% solvent A, 6.0 min – 0% solvent A, 7.0 min – 95% solvent A). This was followed by a 3 min elution with 95% solvent A to re‐equilibrate the column. Flow rates were 0.2 mL/min. The mass spectrometer was operated in the positive ion mode with a drying gas temperature (280°C), drying gas flow rate (13 L min^−1), nebulizer pressure (40 psig), sheath gas temperature (350°C), sheath gas flow rate (12 L min^−1), capillary voltage (4000 V), nozzle voltage (1000 V). Data were analyzed using Agilent MassHunter Qualitative Analysis (Version B.07.00) software.

Assay [4] has as its target human Jumonji-C (JmjC) domain-containing protein 7 (JMJD7), residues 1-316 (human) (UniProt P0C870).
For assay [5] the target is unchanged. This is another data set of the same source.
Where [6] appears, read: 200 nM JMJD7 preincubated 15 min with peptide (1 nM–150 μM), 5 μM DRG1-Lys (17–40) substrate, 10 μM 2OG, 25 min, room temperature, Tris pH 7.5, MALDI MS, duplicate (n = 2), ± SE, read-out: IC50 (JMJD7 inhibition, with 15 min preincubation).

human Jumonji-C (JmjC) domain-containing protein 7 (JMJD7), residues 1-316 (human), sequence (P0C870 whole entry, the tested form may be a part): as above
DRG1-Orn peptide (DRG1 residues 16-40, Orn in place of Lys22), sequence (peptide): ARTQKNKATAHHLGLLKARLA

Turning to `CC(C)C[C@H](NC(=O)CNC(=O)[C@H](CC(C)C)NC(=O)[C@H](Cc1c[nH]cn1)NC(=O)[C@H](Cc1c[nH]cn1)NC(=O)[C@H](C)NC(=O)[C@@H](NC(=O)[C@H](C)NC(=O)[C@H](Cc1ccncc1)NC(=O)[C@H](CC(N)=O)NC(=O)[C@H](CCCCN)NC(=O)[C@H](CCC(N)=O)NC(=O)[C@@H](NC(=O)[C@H](CCCNC(=N)N)NC(=O)[C@H](C)N)[C@@H](C)O)[C@@H](C)O)C(=O)N[C@@H](CC(C)C)C(=O)N[C@@H](CCCCN)C(=O)N[C@@H](C)C(=O)N[C@@H](CCCNC(=N)N)C(=O)N[C@@H](CC(C)C)C(=O)N[C@@H](C)C(=O)N[C@@H](CCCCN)C(=O)N[C@@H](CC(C)C)C(=O)N[C@@H](CCCNC(=N)N)C(=O)N[C@@H](CCCNC(=N)N)C(N)=O` [DRG1‐4pyrA] (H-ARTQKN[4Pal]ATAHHLGLLKARLAKLRR-NH2), the IC50 at human JMJD7 [1] (setting [6]) was determined as 15.2 µM. For the molecule `CC(C)C[C@H](NC(=O)CNC(=O)[C@H](CC(C)C)NC(=O)[C@H](Cc1c[nH]cn1)NC(=O)[C@H](Cc1c[nH]cn1)NC(=O)[C@H](C)NC(=O)[C@@H](NC(=O)[C@H](C)NC(=O)[C@H](CCCN)NC(=O)[C@H](CC(N)=O)NC(=O)[C@H](CCCCN)NC(=O)[C@H](CCC(N)=O)NC(=O)[C@@H](NC(=O)[C@H](CCCNC(=N)N)NC(=O)[C@H](C)N)[C@@H](C)O)[C@@H](C)O)C(=O)N[C@@H](CC(C)C)C(=O)N[C@@H](CCCCN)C(=O)N[C@@H](C)C(=O)N[C@@H](CCCNC(=N)N)C(=O)N[C@@H](CC(C)C)C(=O)N[C@@H](C)C(=O)N[C@@H](CCCCN)C(=O)N[C@@H](CC(C)C)C(=O)N[C@@H](CCCNC(=N)N)C(=O)N[C@@H](CCCNC(=N)N)C(N)=O` [DRG1‐Orn] (H-ARTQKN[Orn]ATAHHLGLLKARLAKLRR-NH2), on human JMJD7 [1] (setting [6]), the IC50 was 14 µM. Besides, on human JMJD7 [2] (50 μM DRG1 peptide, 200 nM JMJD7, 15 min preincubation, 5 μM DRG1-Lys substrate), the “single point inhibition of JMJD7 at 50 μM peptide” value was “clear inhibition”. The “extent of hydroxylation by JMJD7 at higher 2OG concentration” value at human JMJD7 [3] (2 μM JMJD7, 10 μM peptide, 20 μM 2OG, pH 7.5, 2 h incubation) is listed as ~ 31%. For the same molecule, the “extent of hydroxylation (+16 Da) by JMJD7” value on human JMJD7 [3] (standard conditions: 2 μM JMJD7, 10 μM DRG1 peptide, 10 μM 2OG, Tris pH 7.5, 2 h, room temperature) is recorded as ~ 21%. Regarding `CC(C)C[C@H](NC(=O)CNC(=O)[C@H](CC(C)C)NC(=O)[C@H](Cc1c[nH]cn1)NC(=O)[C@H](Cc1c[nH]cn1)NC(=O)[C@H](C)NC(=O)[C@@H](NC(=O)[C@H](C)NC(=O)[C@H](C[SeH])NC(=O)[C@H](CC(N)=O)NC(=O)[C@H](CCCCN)NC(=O)[C@H](CCC(N)=O)NC(=O)[C@@H](NC(=O)[C@H](CCCNC(=N)N)NC(=O)[C@H](C)N)[C@@H](C)O)[C@@H](C)O)C(=O)N[C@@H](CC(C)C)C(=O)N[C@@H](CCCCN)C(=O)N[C@@H](C)C(=O)N[C@@H](CCCNC(=N)N)C(=O)N[C@@H](CC(C)C)C(=O)N[C@@H](C)C(=O)N[C@@H](CCCCN)C(=O)N[C@@H](CC(C)C)C(=O)N[C@@H](CCCNC(=N)N)C(=O)N[C@@H](CCCNC(=N)N)C(N)=O` [DRG1‐Sec] (H-ARTQKN[Sec]ATAHHLGLLKARLAKLRR-NH2), the IC50 at human JMJD7 [1] (setting [6]) amounted to 1.46 µM; on human JMJD7 [1] (same assay conditions but without preincubation, read-out: IC50 (JMJD7 inhibition, without preincubation)), 2.8 µM. As to `CC(C)C[C@H](NC(=O)CNC(=O)[C@H](CC(C)C)NC(=O)[C@H](Cc1c[nH]cn1)NC(=O)[C@H](Cc1c[nH]cn1)NC(=O)[C@H](C)NC(=O)[C@@H](NC(=O)[C@H](C)NC(=O)[C@H](CCCC(N)=O)NC(=O)[C@H](CC(N)=O)NC(=O)[C@H](CCCCN)NC(=O)[C@H](CCC(N)=O)NC(=O)[C@@H](NC(=O)[C@H](CCCNC(=N)N)NC(=O)[C@H](C)N)[C@@H](C)O)[C@@H](C)O)C(=O)N[C@@H](CC(C)C)C(=O)N[C@@H](CCCCN)C(=O)N[C@@H](C)C(=O)N[C@@H](CCCNC(=N)N)C(=O)N[C@@H](CC(C)C)C(=O)N[C@@H](C)C(=O)N[C@@H](CCCCN)C(=O)N[C@@H](CC(C)C)C(=O)N[C@@H](CCCNC(=N)N)C(=O)N[C@@H](CCCNC(=N)N)C(N)=O` [DRG1‐hGln] (H-ARTQKN[Aad](NH2)ATAHHLGLLKARLAKLRR-NH2), the 50% inhibitory concentration (IC50) on human JMJD7 [1] (setting [6]) worked out at 7.68 µM. Turning to “DRG1-4pyrA peptide (DRG1 residues 16-40, 4pyrA in place of Lys22)”, in assay [4], the IC50 of inhibition of JMJD7-catalysed (200 nM) hydroxylation of the DRG1-Lys substrate (residues 17-40, 5 μM), MALDI-TOF MS, 15 min preincubation was 15.2 µM.

As to “DRG1-Cys peptide (DRG1 residues 16-40, Cys in place of Lys22)”, in assay [5], the IC50 of inhibition of JMJD7-catalysed hydroxylation of the DRG1-Lys substrate, MALDI-TOF MS, 15 min preincubation was determined as 1.25 µM and the IC50 of inhibition of JMJD7-catalysed hydroxylation of the DRG1-Lys substrate, MALDI-TOF MS, without preincubation was determined as 16 µM. As to “DRG1-Orn peptide (DRG1 residues 16-40, Orn in place of Lys22)”, in assay [4], the IC50 of inhibition of JMJD7-catalysed (200 nM) hydroxylation of the DRG1-Lys substrate (residues 17-40, 5 μM), MALDI-TOF MS, 15 min preincubation was determined as 14 µM. For the molecule “DRG1-Sec peptide (DRG1 residues 16-40, selenocysteine in place of Lys22)”, in assay [5], the IC50 of inhibition of JMJD7-catalysed hydroxylation of the DRG1-Lys substrate, MALDI-TOF MS, 15 min preincubation was 1.46 µM and the IC50 of inhibition of JMJD7-catalysed hydroxylation of the DRG1-Lys substrate, MALDI-TOF MS, without preincubation worked out at 2.8 µM. With “DRG1-hGln peptide (DRG1 residues 16-40, hGln in place of Lys22)”, the IC50 of inhibition of JMJD7-catalysed (200 nM) hydroxylation of the DRG1-Lys substrate (residues 17-40, 5 μM), MALDI-TOF MS, 15 min preincubation in assay [4] came to 7.68 µM. For “DRG1‐Cys (residues 19–25): shorter peptide fragment DRG1-Cys (residues 19–25) (QKNCATA-NH2)”, the “inhibition of JMJD7 by the shorter peptide fragment” value with human JMJD7 [2] (standard conditions) was “No inhibition”.

The IC50 is the concentration that gives 50% inhibition.
